Test results published in patent US20200207734A1, “HETEROCYCLIC COMPOUND AND USE THEREOF” (Takeda Pharmaceutical Company Limited, priority 2017, published 2020).

Experiments:
[1] = biological target: T1, human orexin type 2 receptor (Homo sapiens, UniProt O43614); experiment: Measurement of orexin type 2 receptor agonist activity (calcium fluorescence, CHO cells expressing hOX2R); format: cell-based; details: test compound 3 μM; CHO cells expressing human OX2 receptor; DMSO = 0%, orexin A (human) = 100%
T1 construct: human orexin type 2 receptor cDNA was inserted into pcDNA3.1(+) plasmid vector (Invitrogen); expressed in transfected cells
T1 sequence (O43614 1-444): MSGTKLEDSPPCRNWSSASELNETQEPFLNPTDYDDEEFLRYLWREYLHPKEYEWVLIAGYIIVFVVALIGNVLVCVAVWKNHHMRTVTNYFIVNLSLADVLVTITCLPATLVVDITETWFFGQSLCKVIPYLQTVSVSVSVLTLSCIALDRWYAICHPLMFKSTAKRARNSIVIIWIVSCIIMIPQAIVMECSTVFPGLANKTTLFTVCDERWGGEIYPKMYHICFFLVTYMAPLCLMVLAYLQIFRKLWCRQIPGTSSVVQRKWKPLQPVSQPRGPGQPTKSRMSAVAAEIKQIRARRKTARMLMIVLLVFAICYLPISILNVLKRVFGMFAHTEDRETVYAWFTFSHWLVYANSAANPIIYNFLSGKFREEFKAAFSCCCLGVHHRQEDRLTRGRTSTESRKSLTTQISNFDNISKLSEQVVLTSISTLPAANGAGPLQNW
How it was run: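 CHO-dhfr cells stably expressing hOX2R, loaded with Fluo-4 AM in HBSS/20 mM HEPES/0.1% BSA with probenecid, then given test compound. Calcium fluorescence was read for about 2 min 40 sec. Activity (%) was scaled between DMSO (0%) and 10 nM final human orexin A (100%).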

cynomolgus monkeys = experiment: Evaluation of wake-promoting effects in cynomolgus monkeys (EEG/EMG/EOG); format: in vivo; details: for response vs control in vivo at 1 mg/kg: Macaca fascicularis, sc, 4 h, s.c., cynomolgus monkeys, administered at ZT12, read-out: Wakefulness time (% of vehicle treatment) (Mean, n = 1-2); for Wakefulness time (% of vehicle treatment): 10 mg/kg, p.o., at ZT12, 4 h after administration, male cynomolgus monkeys, Mean, n = 4-8, cross-over design
Method: The wake-promoting effects were evaluated by measuring the electroencephalogram (EEG), electromyogram (EMG) and electrooculogram (EOG) in cynomolgus monkeys. Under isoflurane anesthesia (1-5%, Pfizer Japan Inc., Tokyo, Japan), male cynomolgus monkeys (3-5 years old, Hamri Co., Ltd., Ibaraki, Japan) were surgically implanted with radio-telemetry transmitters (TL10M3-D70-EEE, Data Sciences International Inc., MN, USA). EEG leads were stereotaxically positioned at the parietal area and secured to the cranium with stainless-steel screws in contact with the dura. […] Bilateral EMG leads were implanted into the back cervical muscles. After the surgery, each monkey was given penicillin (100,000 units/head, i.m., Meiji Seika Pharma Co., Ltd., Tokyo, Japan), buprenorphine (0.02 mg/kg, i.m., Otsuka Pharmaceutical Co., Ltd., Tokyo, Japan) and prednisolone (1 mg/kg, s.c., Kyoritsu Seiyaku Co., Ltd., Tokyo, Japan) daily for one week. After at least a 1-month recovery period in home cages, the monkeys were habituated to the recording chamber (an acrylic cage 60W×55D×75H (cm)) located in a soundproof, electrically shielded room. After we confirmed that monkeys slept sufficiently in the experimental room, cortical EEG, EMG and EOG signals were recorded using Dataquest ART software (Data Sciences International Inc., MN, USA). The signals were semi automatically scored in 20 sec epochs by a sleep scoring system (SleepSign, Kissei Comtec Co., Ltd., Nagano, Japan). This preliminary scoring was visually inspected and corrected if necessary. Test compound (10 mg/kg, Table 4-1) suspended in 0.5% methylcellulose aqueous solution, or vehicle (i.e., 0.5% methylcellulose aqueous solution) was administered orally (p.o.) to monkeys at zeitgeber time 12 (ZT12) in a volume of 5 mL/kg body weight in a cross-over design. EEG, EMG and EOG recordings were performed for 4 h after the compound administration/treatments. The time spent in wakefulness for 4 h after administration (% of vehicle treatment) was calculated by using SleepSign. Test compound (1 mg/kg, Table 4-2) dissolved in a mixed solution comprising 5% DMSO, 5% Cremophor EL, 20% PEG400 and 70% soluplus (1% (w/v)), or vehicle (i.e., a mixed solution comprising 5% DMSO, 5% Cremophor EL, 20% PEG400 and 70% soluplus (1% (w/v))) was administered subcutaneously (s.c.) to monkeys at ZT12 in a volume of 0.5 mL/kg body weight in a pre-post design. EEG, EMG and EOG recordings were performed for 4 h after the compound administration/treatments. The time spent in wakefulness for 4 h after administration (% of vehicle treatment) was calculated by using SleepSign.

[2] = Evaluation of microsome stability in human; format: in vitro ADME; details: human liver microsomes 0.2 mg/mL, 1 μmol/L test compound, pH 7.4, NADPH-generating system, 15 and 30 min; read-out: Clearance (in vitro intrinsic metabolic clearance)
Method: Human liver microsomes were purchased from Xenotech, LLC (Lenexa, Kans.). An incubation mixture consisted of microsomes in 50 mmol/L KH2PO4—K2HPO4 phosphate buffer (pH 7.4) and 1 μmol/L test compound. The concentration of microsomal protein was 0.2 mg/mL. An NADPH-generating system (5 mmol/L MgCl2, 5 mmol/L glucose-6-phosphate, 0.5 mmol/L beta-NADP+ and 1.5 unit/mL glucose-6-phosphate dehydrogenase) was added to the incubation mixture with a half volume of the reaction mixture to initiate the enzyme reaction. The reaction was terminated 15 and 30 minutes after the initiation of the reaction by mixing the reaction mixture with acetonitrile, followed by centrifugation at 2500 rpm for 10 min. The supernatant was subjected to LC/MS/MS analysis. The metabolic velocity was calculated as the slope of the concentration-time plot. The in vitro intrinsic metabolic clearance was calculated by dividing initial metabolic velocity by the test compound concentration in the incubation mixture.

Structure (SMILES)	OX2R agonist activity (3 μM, %) [1]	microsomal CLint at 1 μmol/L [2]	response vs control in vivo at 1 mg/kg (cynomolgus monkeys)	Wakefulness time (% of vehicle treatment) (cynomolgus monkeys)
CC(C)(O)C(=O)N1CC[C@H](NS(=O)(=O)C2(F)CC2)[C@@H]1Cc1cccc(-c2cccc(F)c2)c1F [Example 450, N-[(2S,3S)-2-[(2,3′-difluoro[1,1′-biphenyl]-3-yl)methyl]-1-(2-hydroxy-2-methylpropanoyl)pyrrolidin-3-yl]-1-fluorocyclopropane-1-sulfonamide]	107%	78 µL/min/mg	243%	
CCS(=O)(=O)N[C@H]1CCN(C(=O)N(C)OC)[C@H]1Cc1cccc(-c2cc(F)cc(F)c2)c1 [Example 477, (2S,3S)-2-[(3′,5′-difluoro[1,1′-biphenyl]-3-yl)methyl]-3-[(ethane-sulfonyl)amino]-N-methoxy-N-methylpyrrolidine-1-carboxamide]	106%		383%	
CCS(=O)(=O)N[C@H]1CCN(C(=O)C(C)(C)O)[C@H]1Cc1cccc(-c2cccc(F)c2)c1F [Example 482, N-((2S,3S)-2-((2,3′-difluorobi-phenyl-3-yl)methyl)-1-(2-hydroxy-2-methylpropanoyl)pyrrolidin-3-yl)ethanesulfonamide]	110%	26 µL/min/mg		280.82 % of vehicle treatment
CC(C)(O)C(=O)N1CC[C@H](NS(C)(=O)=O)[C@@H]1Cc1cccc(-c2cc(F)cc(F)c2)c1F [Example 483, N-((2S,3S)-1-(2-hydroxy-2-methyl-propanoyl)-2-((2,3′,5′-trifluorobi-phenyl-3-yl)methyl)pyrrolidin-3-yl)methanesulfonamide]	103%	6 µL/min/mg		359.35 % of vehicle treatment
CCS(=O)(=O)N[C@H]1CCN(C(=O)C(C)(C)O)[C@H]1Cc1cccc(-c2cc(F)cc(F)c2)c1F [Example 484, N-((2S,3S)-1-(2-hydroxy-2-methyl-propanoyl)-2-((2,3′,5′-trifluorobi-phenyl-3-yl)methyl)pyrrolidin-3-yl)ethanesulfonamide]	112%	23 µL/min/mg		492.32 % of vehicle treatment
CS(=O)(=O)N[C@H]1CCN(C(=O)N2CCC2)[C@H]1Cc1cccc(-c2cccc(F)c2)c1F [Example 485, N-((2S,3S)-1-(azetidin-1-ylcarbonyl)-2-((2,3′-difluorobiphenyl-3-yl)methyl)pyrrolidin-3-yl)methanesulfonamide]	104%		449%	

Further lines, with some results ahead:

OX2R agonist activity (3 μM, %) [1]	microsomal CLint at 1 μmol/L [2]	Structure (SMILES)	response vs control in vivo at 1 mg/kg (cynomolgus monkeys)	Wakefulness time (% of vehicle treatment) (cynomolgus monkeys)
102%		CCS(=O)(=O)N[C@H]1CCN(C(=O)N(C)C)[C@H]1Cc1cccc(-c2cccc(F)c2)c1F [Example 486, (2S,3S)-2-((2,3′-difluorobiphenyl-3-yl)methyl)-3-((ethylsulfonyl)amino)-N,N-dimethylpyrrolidine-1-carboxa-mide]	328%	
104%		CCS(=O)(=O)N[C@H]1CCN(C(=O)N(C)C)[C@H]1Cc1cccc(-c2cc(F)cc(F)c2)c1F [Example 487, (2S,3S)-3-((ethylsulfonyl)amino)-N,N-dimethyl-2-((2,3′,5′-trifluorobi-phenyl-3-yl)methyl)pyrrolidine-1-carboxamide]	355%	
